Experimental data taken from patent US11932642B1, “Substituted pyrido[3′,4′:4,5]pyrrolo[3,2-b][1,6]naphthyridines as CK2 inhibitors” (KING FAISAL UNIVERSITY, priority 2023, dated 2024).
pIC50: −log10 of the molar value.

Columns and labels:
PC3 (prostate) = experiment: In vitro cytotoxic activity (MTT) assay, PC3; format: cell-based; details: Homo sapiens, Prostate cell; PC3 (prostate) cells, exposed for 96 hours; read-out: IC50, concentration of compound eliciting a 50% inhibition of cell proliferation
Method: (§1) Compounds 1-12 were screened for their in vitro cytotoxic activity utilizing a 3-(4,5-dimethyl-thiazol-2-yl)-2,5-diphenyltetrazolium bromide (MTT) assay against selected cancer human cell lines consisting of PC3 (prostate), HCT116 (colon), A375 (melanoma), H1299 (lung), MIAPaCa-2 (pancreas), HL60 (leukemia), MCF7 (breast), MDA-MB-231 (breast) (T. Mosmann, J. Immunol. Meth., 1983, 65, 55-63). The cells were cultured at 37° C. in RMPI1640 medium supplemented with 10% fetal bovine serum, 50 IU/mL penicillin, and 50 μg/mL streptomycin in a 5% CO2 incubator. All cells were sub-cultured 3 times/week by trypsinisation. Viable cells were seeded and allowed to adhere for 12 h before a test drug was added in 96-well plates at an initial density of 1.0×10^5 cells/mL. Tumour cell lines were separately exposed to various concentrations of the tested compounds followed by incubation at a temperature of 37° C. during 96 h inside a medium of fresh RMPI 1640. Cells were subsequently incubated at 37° C. using MTT at 0.5 mg/mL during 4 h. After removal of supernatant, formazan crystals were dissolved in isopropanol and the optical density was measured at 570 nm. CX-4945 was used as a positive control.

HCT116 (colon) = experiment: In vitro cytotoxic activity (MTT) assay, HCT116; format: cell-based; details: Homo sapiens, HCT-116; HCT116 (colon) cells, exposed for 96 hours; read-out: IC50, concentration of compound eliciting a 50% inhibition of cell proliferation
Method: as §1

A375 (melanoma) = experiment: In vitro cytotoxic activity (MTT) assay, A375; format: cell-based; details: Homo sapiens, A-375; A375 (melanoma) cells, exposed for 96 hours; read-out: IC50, concentration of compound eliciting a 50% inhibition of cell proliferation
Method: as §1

H1299 (lung) = experiment: In vitro cytotoxic activity (MTT) assay, H1299; format: cell-based; details: Homo sapiens, NCI-H1299; H1299 (lung) cells, exposed for 96 hours; read-out: IC50, concentration of compound eliciting a 50% inhibition of cell proliferation
Method: as §1

MIAPaCa-2 (pancreas) = experiment: In vitro cytotoxic activity (MTT) assay, MIAPaCa-2; format: cell-based; details: Homo sapiens, MIA PaCa-2; MIAPaCa-2 (pancreas) cells, exposed for 96 hours; read-out: IC50, concentration of compound eliciting a 50% inhibition of cell proliferation
Method: as §1

HL60 (leukemia) = experiment: In vitro cytotoxic activity (MTT) assay, HL60; format: cell-based; details: Homo sapiens, HL-60; HL60 (leukemia) cells, exposed for 96 hours; read-out: IC50, concentration of compound eliciting a 50% inhibition of cell proliferation
Method: as §1

MCF7 (breast) = experiment: In vitro cytotoxic activity (MTT) assay, MCF7; format: cell-based; details: Homo sapiens; MCF7 (breast) cells, exposed for 96 hours; read-out: IC50, concentration of compound eliciting a 50% inhibition of cell proliferation
Method: as §1

MDA-MB-231 (breast) = experiment: In vitro cytotoxic activity (MTT) assay, MDA-MB-231; format: cell-based; details: Homo sapiens; MDA-MB-231 (breast) cells, exposed for 96 hours; read-out: IC50, concentration of compound eliciting a 50% inhibition of cell proliferation
Method: as §1

[1] = target: T1, recombinant human CK2 (RRββ-holoenzyme) (Homo sapiens, UniProt P68400); experiment: CK2 Kinase Assay (radiometric, [γ-33P] ATP); format: biochemical; details: final ATP concentration 15 μM, 10 min at 30° C.; read-out: protein kinase CK2 IC50
T1 construct: purchased Millipore
T1 sequence (P68400 whole entry): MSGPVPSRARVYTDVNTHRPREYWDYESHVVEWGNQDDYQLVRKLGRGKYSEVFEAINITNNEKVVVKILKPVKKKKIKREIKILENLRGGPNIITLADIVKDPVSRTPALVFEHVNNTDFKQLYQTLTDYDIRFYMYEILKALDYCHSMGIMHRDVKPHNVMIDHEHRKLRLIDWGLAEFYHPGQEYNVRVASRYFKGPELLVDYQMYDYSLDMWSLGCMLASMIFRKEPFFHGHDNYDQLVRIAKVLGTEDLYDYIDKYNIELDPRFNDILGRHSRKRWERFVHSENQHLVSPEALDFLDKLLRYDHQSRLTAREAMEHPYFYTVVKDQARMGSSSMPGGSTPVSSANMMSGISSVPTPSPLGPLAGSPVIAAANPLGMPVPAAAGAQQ
T1 sequence (P67870 whole entry partner): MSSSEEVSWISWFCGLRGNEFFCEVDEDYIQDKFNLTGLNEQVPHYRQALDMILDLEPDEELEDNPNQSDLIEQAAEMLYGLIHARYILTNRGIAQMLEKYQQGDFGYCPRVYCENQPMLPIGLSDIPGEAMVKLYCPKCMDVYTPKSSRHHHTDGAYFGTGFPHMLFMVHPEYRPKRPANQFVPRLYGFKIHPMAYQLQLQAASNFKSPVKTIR
Method: CK2 Kinase Assay was conducted using the protocol as described in Pierre F. et al; J. Med. Chem. 2011, 54, 635-654. The tested compounds in aqueous solution were added at a volume of 10 μL to a reaction mixture comprising 10 μL of assay dilution buffer (ADB; 20 mM MOPS, pH 7.2, 25 mM β-glycerol phosphate, 5 mM EGTA, 1 mM sodium orthovanadate, and 1 mM dithiothreitol), 10 μL of substrate peptide (RRRDDDSDDD, dissolved in ADB at a concentration of 1 mM), 10 μL of recombinant human CK2 (RRββ-holoenzyme, 25 ng dissolved in ADB; Millipore). Reactions were initiated by the addition of 10 μL of ATP solution (90% 75 mMMgCl2, 75 μM ATP (final ATP concentration: 15 μM) dissolved in ADB; 10% [γ-33P] ATP (stock 1 mCi/100 μL; 3000 Ci/mmol (Perkin-Elmer) and maintained for 10 min at 30° C. The reactions were quenched with 100 μL of 0.75% phosphoric acid and then transferred to and filtered through a phosphor cellulose filter plate (Millipore). After washing each well five times with 0.75% phosphoric acid, the plate was dried under vacuum for 5 min and, following the addition of 15 μL of scintillation fluid to each well, the residual radioactivity was measured using a Wallac […] counter. The IC50 values were derived from eight concentrations of test inhibitors.

- pIC50 [1]: 7.19
SMILES: Clc1cccc(Nc2c3cnccc3nc3c2[nH]c2ccncc23)c1 [Compound (1), N-(3-chlorophenyl)-10H-pyrido[3′,4′:4,5]pyrrolo[3,2-b][1,6]naphthyridin-11-amine]
- pIC50 (PC3 (prostate)): 5.77
- pIC50 (HCT116 (colon)): 5.96
- pIC50 (A375 (melanoma)): 5.55
- pIC50 (H1299 (lung)): 5.49
- pIC50 (MIAPaCa-2 (pancreas)): 6.05
- pIC50 (HL60 (leukemia)): 5.62
- pIC50 (MCF7 (breast)): 5.12
- pIC50 (MDA-MB-231 (breast)): 5.27
